Experimental data taken from the supplement of paper PMC4976141.
± gives the uncertainty stated by the source.

Columns and labels:
COLO-205 [1] = experiment: % viability under drug (72 h drug + 72 h recovery), miRNA mimic relative to NTC in DMSO; higher = more surviving cells; details: drug used in drug arm: AZ628 1 uM; treatment: drug
Protocol: (§1)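 26 miRNA mimics were transfected into 8 cancer cell lines in triplicate. 48 h post-transfection, cells were treated 72 h with DMSO or a line-specific drug, then recovered 72 h drug-free. Drugs: COLO-205 AZ628 1 uM, MKN-45 crizotinib 1 uM, NCI-H596 paclitaxel 6 uM, EVSA-T GDC-0980 2.5 uM, M14 AZ628 1 uM, HCC-1954 GDC-0980 2.5 uM, NCI-H441 carboplatin 2.5 uM, SKBr3 lapatinib 1 uM. Surviving cells are expressed as % of NTC-transfected cells in DMSO (the NTC drug arm itself is about 30-50%), mean +- SEM.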

MKN-45 [2] = experiment: as above; details: drug used in drug arm: crizotinib 1 uM; treatment: drug
Protocol: as §1

M14 [3] = experiment: as above; details: drug used in drug arm: AZ628 1 uM; treatment: drug
Protocol: as §1

EVSA-T [4] = experiment: as above; details: drug used in drug arm: GDC-0980 2.5 uM; treatment: drug
Protocol: as §1

SK-BR-3 [5] = experiment: as above; details: drug used in drug arm: lapatinib 1 uM; treatment: drug
Protocol: as §1

NCI-H441 [6] = experiment: as above; details: drug used in drug arm: carboplatin 2.5 uM; treatment: drug
Protocol: as §1

HCC-1954 [7] = experiment: as above; details: drug used in drug arm: GDC-0980 2.5 uM; treatment: drug
Protocol: as §1

NCI-H596 [8] = experiment: as above; details: drug used in drug arm: paclitaxel 6 uM; treatment: drug
Protocol: as §1

COLO-205 [9] = experiment: % viability in DMSO, miRNA mimic relative to NTC in DMSO; higher = less cytotoxic; details: drug used in drug arm: AZ628 1 uM; treatment: DMSO
Protocol: as §1

MKN-45 [10] = experiment: as above; details: drug used in drug arm: crizotinib 1 uM; treatment: DMSO
Protocol: as §1

M14 [11] = experiment: as above; details: drug used in drug arm: AZ628 1 uM; treatment: DMSO
Protocol: as §1

EVSA-T [12] = experiment: as above; details: drug used in drug arm: GDC-0980 2.5 uM; treatment: DMSO
Protocol: as §1

SK-BR-3 [13] = experiment: as above; details: drug used in drug arm: lapatinib 1 uM; treatment: DMSO
Protocol: as §1

NCI-H441 [14] = experiment: as above; details: drug used in drug arm: carboplatin 2.5 uM; treatment: DMSO
Protocol: as §1

HCC-1954 [15] = experiment: as above; details: drug used in drug arm: GDC-0980 2.5 uM; treatment: DMSO
Protocol: as §1

NCI-H596 [16] = experiment: as above; details: drug used in drug arm: paclitaxel 6 uM; treatment: DMSO
Protocol: as §1

PC9 = experiment: cell count fold change with erlotinib, miRNA mimic vs non-targeting control (log2 ratio); higher = more drug-tolerant survivors than NTC; details: erlotinib 1 µM; 72 h drug + 72 h drug-free recovery; perturbation: miRNA mimic

Row | Sequence | % viability under drug (COLO-205 [1]) [%] | % viability under drug (MKN-45 [2]) [%] | % viability under drug (M14 [3]) [%] | % viability under drug (EVSA-T [4]) [%] | % viability under drug (SK-BR-3 [5]) [%] | % viability under drug (NCI-H441 [6]) [%] | % viability under drug (HCC-1954 [7]) [%] | % viability under drug (NCI-H596 [8]) [%] | % viability in DMSO (COLO-205 [9]) [%] | % viability in DMSO (MKN-45 [10]) [%] | % viability in DMSO (M14 [11]) [%] | % viability in DMSO (EVSA-T [12]) [%] | % viability in DMSO (SK-BR-3 [13]) [%] | % viability in DMSO (NCI-H441 [14]) [%] | % viability in DMSO (HCC-1954 [15]) [%] | % viability in DMSO (NCI-H596 [16]) [%] | cell count fold change with erlotinib (PC9)
1 | AAGUGCCGCCAUCUUUUGAGUGU | 30.8 ± 0.9 | 0.444 ± 0.042 | 1.98 ± 0.13 | 0.157 | 8.32 ± 0.77 | 7.71 ± 2.4 | 0.919 ± 0.19 | 0.265 ± 0.011 | 100.8 ± 0.28 | 35.27 ± 0.22 | 15.7 ± 1.4 | 12.3 ± 1.3 | 22.2 ± 6.5 | 13.71 ± 0.039 | 11.8 ± 0.37 | 37.5 ± 5.6 | -4.45
2 | ACAGUAGAGGGAGGAAUCGCAG | 37.6 ± 4.1 | 0.428 ± 0.005 | 4.04 ± 0.76 | 0.124 ± 0.035 | 25.7 ± 0.71 | 38.6 ± 6.2 | 1.37 ± 0.43 | 0.53 ± 0.13 | 94 ± 5.5 | 31.6 ± 9.1 | 20 ± 3.4 | 25.6 ± 1.8 | 67.8 ± 13 | 34.6 ± 18 | 64.5 ± 2.5 | 65.6 ± 2.4 | -3.56
3 | AGUUAAUGAAUCCUGGAAAGU | 43.4 ± 1.2 | 1.55 ± 0.042 | 9.17 ± 1.3 | 0.344 ± 0.059 | 19.2 ± 4 | 14.3 ± 0.47 | 1.99 ± 0.45 | 0.869 ± 0.086 | 101.6 ± 0.44 | 40.6 ± 10 | 55.5 ± 2.1 | 26.1 ± 11 | 33.3 ± 1.6 | 61.6 ± 15 | 48.3 ± 2 | 25.4 ± 6.1 | -4.81
4 | CAAAAGUAAUUGUGGAUUUUGU | 44.6 ± 3.2 | 1.49 ± 0.11 | 14.1 ± 0.89 | 0.243 ± 0.018 | 20.2 ± 1.6 | 13.6 ± 2 | 1.55 ± 0.17 | 0.808 ± 0.028 | 106 ± 1.7 | 40.7 ± 3.5 | 62.9 ± 9 | 39.3 ± 3.4 | 46.3 ± 3.1 | 62.3 ± 2.6 | 88.3 ± 15 | 73.6 ± 2.9 | -2.88
5 | CAAUGUUUCCACAGUGCAUCAC | 29.2 ± 4.1 | 0.794 ± 0.25 | 5.66 ± 1.1 | 0.155 ± 0.049 | 9.29 ± 0.1 | 4.19 ± 0.47 | 1.26 ± 0.032 | 0.731 ± 0.068 | 98.6 ± 2 | 2.31 ± 0.74 | 42.7 ± 9 | 2.27 ± 1.2 | 16.8 ± 1.4 | 2.78 ± 0.14 | 7.62 ± 0.18 | 15.2 ± 1.5 | -2.66
6 | GAAUGUUGCUCGGUGAACCCCU | 36.6 ± 1.2 | 0.355 ± 0.046 | 3.18 ± 0.17 | 0.08 ± 0.004 | 10.1 ± 0.42 | 4.29 ± 0.14 | 0.831 ± 0.092 | 0.932 ± 0.015 | 102 ± 1.1 | 8.61 ± 2.6 | 17.3 ± 2.9 | 0.953 ± 0.055 | 12.4 ± 5.7 | 7.26 ± 0.039 | 10.8 ± 1.4 | 7.07 ± 2.1 | -3.27
